What is called IC50 is the concentration that inhibits the measured activity by half.

The subject of the assay is Jurkat NF-kB luciferase reporter, PMA/ionomycin, luminescence 16 h. Put plainly: blockers of NF-kB activation in T cells – Jurkat, luciferase reporter, luminescence, B- and T-cell, dose response (AID 489004).

Turning to `CC(=O)OC[C@]12CCC(C)=C[C@H]1O[C@@H]1[C@H](O)[C@@H](OC(C)=O)[C@@]2(C)[C@]12CO2`, the IC50 is less than 0.16 µM.

(Values after PubChem BioAssay AID489004 (Sanford-Burnham Center for Chemical Genomics, 2010).)
